{"source": "patent US20230391781A1", "about": "“MALT1 MODULATORS AND USES THEREOF” (Rheos Medicines, Inc., priority 2020, published 2023)", "key": {"[1]": {"biological_target": "full length MALT1 (Homo sapiens (Human), UniProt Q9UDY8)", "sequence (Q9UDY8 whole entry)": "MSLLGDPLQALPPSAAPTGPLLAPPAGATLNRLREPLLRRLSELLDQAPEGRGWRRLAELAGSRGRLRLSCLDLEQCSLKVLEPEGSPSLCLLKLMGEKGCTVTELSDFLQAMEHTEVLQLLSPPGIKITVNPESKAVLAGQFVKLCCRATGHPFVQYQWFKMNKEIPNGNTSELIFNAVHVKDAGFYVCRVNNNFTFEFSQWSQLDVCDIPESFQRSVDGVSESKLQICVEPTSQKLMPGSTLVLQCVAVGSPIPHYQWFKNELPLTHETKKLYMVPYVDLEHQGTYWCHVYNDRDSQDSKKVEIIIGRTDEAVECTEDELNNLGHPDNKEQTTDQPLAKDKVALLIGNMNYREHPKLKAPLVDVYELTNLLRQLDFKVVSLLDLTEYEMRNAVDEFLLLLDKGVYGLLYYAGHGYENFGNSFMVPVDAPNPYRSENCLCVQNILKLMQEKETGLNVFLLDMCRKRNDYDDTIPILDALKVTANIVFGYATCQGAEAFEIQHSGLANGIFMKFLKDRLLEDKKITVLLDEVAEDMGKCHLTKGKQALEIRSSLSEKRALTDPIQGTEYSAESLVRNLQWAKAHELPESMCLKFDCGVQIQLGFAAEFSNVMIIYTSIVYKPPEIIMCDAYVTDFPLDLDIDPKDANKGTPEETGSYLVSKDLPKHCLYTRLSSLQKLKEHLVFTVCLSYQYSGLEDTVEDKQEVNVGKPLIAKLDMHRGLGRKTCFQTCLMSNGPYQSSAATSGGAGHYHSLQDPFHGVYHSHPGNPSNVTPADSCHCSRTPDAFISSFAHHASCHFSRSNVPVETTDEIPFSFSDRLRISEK", "assay": "MALT1 Biochemical Assay", "conditions": "15 nM enzyme, 30 μM peptide substrate Ac-Leu-Arg-Ser-Arg-Rh110-dPro, 30 min pre-incubation, 60 min reaction; mean value if tested more than once", "procedure": "Inhibitor potency was evaluated by measuring enzymatic activity of full length MALT1 at varying concentrations of compound. The enzymatic assay consists of a single substrate reaction that monitors the release of a fluorescent dye upon cleavage of the peptide substrate. […] The assay buffer consists of 50 mM Hepes, pH 7.5, 0.8 M sodium citrate, 1 mM DTT, 0.004% tween-20, and 0.005% bovine serum albumin (BSA). […] The reaction was quenched after 60 minutes with the addition of iodoacetate at a final concentration of 10 mM. Total fluorescence was measured using an Envision (PerkinElmer) with fluorescence excitation at 485 nm and emission at […].\nFor potency determination, 1 μL of serially diluted compound (in 100% DMSO) was pre-incubated with 40 μL of enzyme for 30 minutes. The reaction was initiated with the addition of 10 μL of peptide substrate. The relative fluorescence units were transformed to percent inhibition by using 0% and 100% inhibition controls as reference. […] IC50 values were calculated by fitting the concentration-response curves to a four-parameter logistic equation in GraphPad Prism."}, "[2]": {"test_system": "IL-2 in Jurkat (ATCC, clone E6.1) cells stimulated with anti-CD3/28/2", "assay": "Jurkat IL-2 Assay", "assay_type": "cell-based", "conditions": "Homo sapiens; IL-2 inhibition, Jurkat cells, 30 min compound then anti-CD3/28/2 stimulation for 24 hours; mean value if tested more than once; read-out: IC50", "procedure": "Inhibition was determined in a cell-based assay using Jurkat (ATCC, clone E6.1), an immortalized T-cell line, exposed to a dose response of compound and assessed for viability, and Il-2 inhibition by ELISA. Cells were cultured in RPMI/10% FBS (Invitrogen 11875093, Atlanta Biologicals S12450H), maintained below 3E6/mL and only used in assays while below passage 25. Compounds were stamped by ECHO onto 384w plates (PerkinElmer Culturplate, 6007680). The cells were plated in fresh media on top of compound and incubated for 30 minutes before stimulation with soluble anti-CD3/28/2 (Stemcell, 10970) for 24 hours. Supernatant was collected and assessed for Il-2 (MSD, 384w, L21SA-1). To assess viability of cells treated with compound, cells were lysed with CTG reagent (Promega, G7570), and measured by luminometer. […] IC50s calculated using 4-parameter fit in GraphPad Prism.\nIn this table, “A” indicates IC50 of less than 0.1 μM; “B” indicates IC50 from 0.1 μM up to 1 μM; and “C” indicates IC50 of greater than 1 μM. “N/A” indicates not tested. For a compound that was tested in more than one experiment, the result shown represents the mean value."}}}
{"compound": "COC(=O)N1CCC(C(=O)N(C)[C@@H](c2ccc(Nc3cnc4nc(Cl)nn4c3[C@H](C)OC)cc2)C(F)(F)F)CC1", "note": "[Compound 3.3, methyl 4-{[(1S)-1-[4-({2-chloro-7-[(1S)-1-methoxyethyl]-[1,2,4]triazolo[1,5-a]pyrimidin-6-yl}amino)phenyl]-2,2,2-trifluoroethyl](methyl)carbamoyl}piperidine-1-carboxylate]", "values": [{"measurement": "IC50", "setting": "[1]", "value": "< 0.1", "unit": "µM"}, {"measurement": "IC50", "setting": "[2]", "value": "0.1 to 1", "unit": "µM"}]}
{"compound": "CO[C@@H](C)c1c(Nc2ccc([C@H](N(C)C(=O)C3CCC3)C(F)(F)F)c(C)c2)cnc2nc(Cl)nn12", "note": "[Compound 1.28, N-[(1S)-1-[4-({2-chloro-7-[(1S)-1-methoxyethyl]-[1,2,4]triazolo[1,5-a]pyrimidin-6-yl}amino)-2-methylphenyl]-2,2,2-trifluoroethyl]-N-methylcyclobutanecarboxamide]", "values": [{"measurement": "IC50", "setting": "[1]", "value": "> 1", "unit": "µM"}, {"measurement": "IC50", "setting": "[2]", "value": "> 1", "unit": "µM"}]}
{"compound": "CO[C@@H](C)c1c(Nc2ccc([C@H](N(C)C(=O)C3CCN(S(=O)(=O)C(C)C)CC3)C(F)(F)F)cc2)cnc2nc(Cl)nn12", "note": "[Compound 3.2, N-[(1S)-1-[4-({2-chloro-7-[(1S)-1-methoxyethyl]-[1,2,4]triazolo[1,5-a]pyrimidin-6-yl}amino)phenyl]-2,2,2-trifluoroethyl]-N-methyl-1-(propane-2-sulfonyl)piperidine-4-carboxamide]", "values": [{"measurement": "IC50", "setting": "[1]", "value": "< 0.1", "unit": "µM"}, {"measurement": "IC50", "setting": "[2]", "value": "0.1 to 1", "unit": "µM"}]}
{"compound": "CO[C@@H](C)c1c(Nc2ccc([C@H](N(C)C(=O)C3CCC(CN)CC3)C(F)(F)F)cc2)cnc2nc(Cl)nn12", "note": "(stereo partly drawn) [Compound 2.4, 4-(aminomethyl)-N-[(1S)-1-[4-({2-chloro-7-[(1S)-1-methoxyethyl]-[1,2,4]triazolo[1,5-a]pyrimidin-6-yl}amino)phenyl]-2,2,2-trifluoroethyl]-N-methylcyclohexane-1-carboxamide; Formic Acid]", "values": [{"measurement": "IC50", "setting": "[1]", "value": "< 0.1", "unit": "µM"}, {"measurement": "IC50", "setting": "[2]", "value": "0.1 to 1", "unit": "µM"}]}
{"compound": "CO[C@@H](C)c1c(Nc2ccc([C@H](N(C)C(=O)C3CCC(NC(C)=O)CC3)C(F)(F)F)cc2)cnc2nc(Cl)nn12", "note": "(stereo partly drawn) [Compound 1.17, N-[(1S)-1-[4-({2-chloro-7-[(1S)-1-methoxyethyl]-[1,2,4]triazolo[1,5-a]pyrimidin-6-yl}amino)phenyl]-2,2,2-trifluoroethyl]-4-acetamido-N-methylcyclohexane1-carboxamide]", "values": [{"measurement": "IC50", "setting": "[1]", "value": "< 0.1", "unit": "µM"}, {"measurement": "IC50", "setting": "[2]", "value": "0.1 to 1", "unit": "µM"}]}
{"compound": "CO[C@@H](C)c1c(Nc2ccc([C@H](N(C)C(=O)C3CCN(C(C)=O)C3)C(F)(F)F)cc2)cnc2nc(Cl)nn12", "note": "(stereo partly drawn) [Compound 3.8, 1-acetyl-N-[(1S)-1-[4-({2-chloro-7-[(1S)-1-methoxyethyl]-[1,2,4]triazolo[1,5-a]pyrimidin-6-yl}amino)phenyl]-2,2,2-trifluoroethyl]-N-methylpyrrolidine-3-carboxamide]", "values": [{"measurement": "IC50", "setting": "[1]", "value": "0.1 to 1", "unit": "µM"}, {"measurement": "IC50", "setting": "[2]", "value": "> 1", "unit": "µM"}]}
{"compound": "CO[C@@H](C)c1c(Nc2ccc([C@H](N(C)C(C)=O)C(F)(F)F)cc2)cnc2nc(Cl)nn12", "note": "[Compound 1.2, N-[(1S)-1-[4-({2-chloro-7-[(1S)-1-methoxyethyl]-[1,2,4]triazolo[1,5-a]pyrimidin-6-yl}amino)phenyl]-2,2,2-trifluoroethyl]-N-methylacetamide]", "values": [{"measurement": "IC50", "setting": "[1]", "value": "0.1 to 1", "unit": "µM"}, {"measurement": "IC50", "setting": "[2]", "value": "0.1 to 1", "unit": "µM"}]}
{"compound": "CO[C@@H](C)c1c(Nc2ccc([C@H](N(C)C(=O)C3CCCN(C)C3)C(F)(F)F)cc2)cnc2nc(Cl)nn12", "note": "(stereo partly drawn) [Compound 5.2, N—((S)-1-(4-((2-chloro-7-((S)-1-methoxyethyl)-[1,2,4]triazolo[1,5-a]pyrimidin-6-yl)amino)phenyl)-2,2,2-trifluoroethyl)-N,1-dimethylpiperidine-3-carboxamide]", "values": [{"measurement": "IC50", "setting": "[1]", "value": "0.1 to 1", "unit": "µM"}, {"measurement": "IC50", "setting": "[2]", "value": "> 1", "unit": "µM"}]}
{"compound": "CO[C@@H](C)c1c(Nc2ccc([C@H](N(C)C(=O)[C@H]3C[C@H](C(=O)O)C3)C(F)(F)F)cc2)cnc2nc(Cl)nn12", "note": "[Compound 7.3, (1S,3r)-3-(((S)-1-(4-((2-chloro-7-((S)-1-methoxyethyl)-[1,2,4]triazolo[1,5-a]pyrimidin-6-yl)amino)phenyl)-2,2,2-trifluoroethyl)(methyl)carbamoyl)cyclobutane-1-carboxylic acid]", "values": [{"measurement": "IC50", "setting": "[1]", "value": "0.1 to 1", "unit": "µM"}, {"measurement": "IC50", "setting": "[2]", "value": "> 1", "unit": "µM"}]}
{"compound": "CO[C@@H](C)c1c(Nc2ccc([C@@H](N(C)C(=O)C3CCS(=O)(=O)CC3)C(F)(F)F)cc2)cnc2nc(Cl)nn12", "note": "[Compound 1.26, N-[(1R)-1-[4-({2-chloro-7-[(1S)-1-methoxyethyl]-[1,2,4]triazolo[1,5-a]pyrimidin-6-yl}amino)phenyl]-2,2,2-trifluoroethyl]-N-methyl-1,1-dioxo-1λ^6-thiane-4-carboxamide]", "values": [{"measurement": "IC50", "setting": "[1]", "value": "> 1", "unit": "µM"}, {"measurement": "IC50", "setting": "[2]", "value": "> 1", "unit": "µM"}]}
{"compound": "COC(=O)[C@H]1CC[C@H](C(=O)N(C)[C@@H](c2ccc(Nc3cnc4nc(Cl)nn4c3[C@H](C)OC)cc2)C(F)(F)F)CC1", "note": "[Compound 1.4, methyl(1r,4r)-4-{[(1S)-1-[4-({2-chloro-7-[(1S)-1-methoxyethyl]-[1,2,4]triazolo[1,5-a]pyrimidin-6-yl}amino)phenyl]-2,2,2-trifluoroethyl] (methyl)carbamoyl}cyclohexane-1-carboxylate]", "values": [{"measurement": "IC50", "setting": "[1]", "value": "0.1 to 1", "unit": "µM"}, {"measurement": "IC50", "setting": "[2]", "value": "0.1 to 1", "unit": "µM"}]}
{"compound": "CO[C@@H](C)c1c(Nc2ccc(C(C)N(C)C(=O)C3CC3)cc2)cnc2nc(Cl)nn12", "note": "(stereo partly drawn) [Compound 1.23, N-{1-[4-({2-chloro-7-[(1S)-1-methoxyethyl]-[1,2,4]triazolo[1,5-a]pyrimidin-6-yl}amino)phenyl]ethyl}-N-methylcyclopropanecarboxamide]", "values": [{"measurement": "IC50", "setting": "[1]", "value": "> 1", "unit": "µM"}, {"measurement": "IC50", "setting": "[2]", "value": "> 1", "unit": "µM"}]}
{"compound": "CO[C@@H](C)c1c(Nc2ccc([C@H](N(C)C(=O)C3CCCN(C(=O)C4CC4)C3)C(F)(F)F)cc2)cnc2nc(Cl)nn12", "note": "(stereo partly drawn) [Compound 4.2, N-[(1S)-1-[4-({2-chloro-7-[(1S)-1-methoxyethyl]-[1,2,4]triazolo[1,5-a]pyrimidin-6-yl}amino)phenyl]-2,2,2-trifluoroethyl]-1-cyclopropanecarbonyl-N-methylpiperidine-3-carboxamide]", "values": [{"measurement": "IC50", "setting": "[1]", "value": "0.1 to 1", "unit": "µM"}, {"measurement": "IC50", "setting": "[2]", "value": "0.1 to 1", "unit": "µM"}]}
{"compound": "CO[C@@H](C)c1c(Nc2ccc([C@H](N(C)C(=O)C3CCN(C(=O)OC(C)(C)C)CC3)C(F)(F)F)cc2)cnc2nc(Cl)nn12", "note": "[Compound 1.10, tert-butyl 4-{[(1S)-1-[4-({2-chloro-7-[(1S)-1-methoxyethyl]-[1,2,4]triazolo[1,5-a]pyrimidin-6-yl}amino)phenyl]-2,2,2-trifluoroethyl](methyl)carbamoyl}piperidine-1-carboxylate]", "values": [{"measurement": "IC50", "setting": "[1]", "value": "0.1 to 1", "unit": "µM"}, {"measurement": "IC50", "setting": "[2]", "value": "0.1 to 1", "unit": "µM"}]}
{"compound": "CO[C@@H](C)c1c(Nc2ccc([C@H](N(C)C(=O)C3CCCNC3)C(F)(F)F)cc2)cnc2nc(Cl)nn12", "note": "(stereo partly drawn) [Compound 2.2, N-[(1S)-1-[4-({2-chloro-7-[(1S)-1-methoxyethyl]-[1,2,4]triazolo[1,5-a]pyrimidin-6-yl}amino)phenyl]-2,2,2-trifluoroethyl]-N-methylpiperidine-3-carboxamide]", "values": [{"measurement": "IC50", "setting": "[1]", "value": "0.1 to 1", "unit": "µM"}, {"measurement": "IC50", "setting": "[2]", "value": "> 1", "unit": "µM"}]}
{"compound": "CO[C@@H](C)c1c(Nc2ccc([C@H](N(C)C(=O)[C@H]3C[C@H](C#N)C3)C(F)(F)F)cc2)cnc2nc(Cl)nn12", "note": "[Compound 1.9, (1r,3S)—N—((S)-1-(4-((2-chloro-7-((S)-1-methoxyethyl)-[1,2,4]triazolo[1,5-a]pyrimidin-6-yl)amino)phenyl)-2,2,2-trifluoroethyl)-3-cyano-N-methylcyclobutane-1-carboxamide]", "values": [{"measurement": "IC50", "setting": "[1]", "value": "0.1 to 1", "unit": "µM"}, {"measurement": "IC50", "setting": "[2]", "value": "0.1 to 1", "unit": "µM"}]}
{"compound": "CO[C@@H](C)c1c(Nc2ccc([C@H](N(C)C(=O)C3CCSCC3)C(F)(F)F)cc2)cnc2nc(Cl)nn12", "note": "[Compound 1.5, N-[(1S)-1-[4-({2-chloro-7-[(1S)-1-methoxyethyl]-[1,2,4]triazolo[1,5-a]pyrimidin-6-yl}amino)phenyl]-2,2,2-trifluoroethyl]-N-methylthiane-4-carboxamide]", "values": [{"measurement": "IC50", "setting": "[1]", "value": "< 0.1", "unit": "µM"}, {"measurement": "IC50", "setting": "[2]", "value": "0.1 to 1", "unit": "µM"}]}
{"compound": "CO[C@@H](C)c1c(Nc2ccc(C(C)N(C)C(=O)C3CCCCC3)cc2)cnc2nc(Cl)nn12", "note": "(stereo partly drawn) [Compound 1.21, N-{1-[4-({2-chloro-7-[(1S)-1-methoxyethyl]-[1,2,4]triazolo[1,5-a]pyrimidin-6-yl}amino)phenyl]ethyl}-N-methylcyclohexanecarboxamide]", "values": [{"measurement": "IC50", "setting": "[1]", "value": "> 1", "unit": "µM"}, {"measurement": "IC50", "setting": "[2]", "value": "> 1", "unit": "µM"}]}
{"compound": "CO[C@@H](C)c1c(Nc2ccc([C@H](N(C)C(=O)C3CC3)C(F)(F)F)cc2C)cnc2nc(Cl)nn12", "note": "[Compound 1.32, N-[(1S)-1-[4-({2-chloro-7-[(1S)-1-methoxyethyl]-[1,2,4]triazolo[1,5-a]pyrimidin-6-yl}amino)-3-methylphenyl]-2,2,2-trifluoroethyl]-N-methylcyclopropanecarboxamide]", "values": [{"measurement": "IC50", "setting": "[1]", "value": "0.1 to 1", "unit": "µM"}, {"measurement": "IC50", "setting": "[2]", "value": "> 1", "unit": "µM"}]}
